The series deals with Red blood cell (RBC). Nature of the series: Red blood cell lysis (hemolysis). The settings on record: 1% Triton X-100, positive control.

Consider Triton X-100, for which the hemolysis was found to be 100%.

Source of the values: patent US11446238B2, “Injectable dendrimer hydrogel nanoparticles” (Wayne State University, priority 2010, dated 2022).
